We go through two compounds from US20140163099A1, “ANTIMICROBIAL COMPOSITION” (TAKASAGO INTERNATIONAL CORPORATION, priority 2011, published 2014).

Common to all, as to format: cell-based
Experiment [1] has as its system Staphylococcus aureus (JCM2151). The experiment can be described thus: Growth inhibition activity (MIC, agar) against aerobic bacteria. The note with it: strain JCM2151; Mueller Hinton Agar, 37 degrees C. overnight. On the procedure: (§1) In the present invention, the growth inhibition activity, which is an indicator of the antimicrobial activity, is evaluated by determining the Minimum Inhibitory Concentration (MIC) with an agar or liquid medium.
(§2) In the test for the growth inhibition activity, the following strains were used as skin-related bacteria: • Staphylococcus epidermidis: Staphylococcus epidermidis (JCM2414T and ATCC 12228) • Staphylococcus aureus: Staphylococcus aureus (NBRC12732 and JCM2151) • Skin indigenous bacteria which introduce a superficial infection: Corynebacterium minutissimum (NBRC15361T) • Armpit odor-causing bacteria: Corynebacterium xerosis (JCM1324)
(§3) The test strains were cultured in the liquid medium which the Bioresource center recommends, and then the test strains were subcultured to a Mueller Hinton Broth (Difco) at 30 degrees C. The grown bacteria were diluted to 10^6 CFU/ml with saline to adjust the bacteria fluids for inoculation.
(§4) Furthermore, in order to examine the growth inhibition activities against the bacteria by the above cooling agents, the concentration of the cooling agents: (3S)-CA20, (3R)-CA20, CA1, CA5, CA15, CA55 or CA MGH was diluted with ethanol to the required level of concentration for the determining the Minimum Inhibitory Concentration to produce the sample liquids.
(§5) Next, 100 μL of each sample liquid was added to 10 mL of a Mueller Hinton Agar (Difco) agar medium solution in a soluble state, and each agar medium solution was poured into a petri dish and solidified to prepare test plates having several concentrations of the sample liquids (several concentrations of the above cooling agents). Subsequently, 5 μL of the above bacteria fluids for inoculation were stamped on the test plates, and then the test plates were cultured at 37 degrees C. overnight.
(§6) In this way, the growth inhibition activities by (3S)-CA20, (3R)-CA20, CA1, CA5, CA15, CA55, CA MGH were examined. The minimum concentration of the cooling agent in which the growth of bacteria could not be confirmed was considered as the MIC (Minimum Inhibitory Concentration).
(§7) The minimum concentration of the cooling agent in which the grown strain could not be confirmed was considered as the MIC (Minimum Inhibitory Concentration).

Experiment [2] concerns Staphylococcus aureus (NBRC12732). The description is as above. The note with it: strain NBRC12732; Mueller Hinton Agar, 37 degrees C. overnight. The procedure: as §1, §2, §3, §4, §5, §6, §7
Experiment [3] concerns Staphylococcus epidermidis (JCM2414T). The description is as above. The note with it: strain JCM2414T; Mueller Hinton Agar, 37 degrees C. overnight. On the procedure: as §1, §2, §3, §4, §5, §6, §7
Experiment [4] concerns Corynebacterium minutissimum (NBRC15361T). The experiment is described as above. The note with it: strain NBRC15361T; Mueller Hinton Agar, 37 degrees C. overnight. On the procedure:
as §1, §2, §3, §4, §5, §6, §7

In experiment [5] the test system is Corynebacterium xerosis (JCM1324). Described as above. The following applies: strain JCM1324; Mueller Hinton Agar, 37 degrees C. overnight. On the procedure:
as §1, §2, §3, §4, §5, §6, §7

Experiment [6] concerns Escherichia coli (NBRC3972). The experiment is described as above. The note with it: strain NBRC3972; Mueller Hinton Agar, 37 degrees C. overnight. On the procedure:
as §1
(§8) Furthermore, the following bacteria were also used as other general aerobic bacteria: • Escherichia coli: Escherichia coli (NBRC3972) • Pseudomonas aeruginosa: Pseudomonas aeruginosa (NBRC13275) • Bacteria in intestines: Proteus vulgaris (NBRC3167) • Pneumobacillus: Klebsiella pneumoniae (NBRC13277) • Bacillus subtilis: Bacillus subtilis (NBRC3134)
as §3, §4, §5, §6, §7

In experiment [7] the test system is Klebsiella pneumoniae (NBRC13277). Described as above. The note with it: strain NBRC13277; Mueller Hinton Agar, 37 degrees C. overnight. The procedure:
as §1, §8, §3, §4, §5, §6, §7

The test system of experiment [8] is Proteus vulgaris (NBRC3167). Described as above. The following applies: strain NBRC3167; Mueller Hinton Agar, 37 degrees C. overnight. The procedure: as §1, §8, §3, §4, §5, §6, §7
In experiment [9] the test system is Bacillus subtilis (NBRC3134). The experiment is described as above. The note with it: strain NBRC3134; Mueller Hinton Agar, 37 degrees C. overnight. The procedure:
as §1, §8, §3, §4, §5, §6, §7

Experiment [10] deals with Pseudomonas aeruginosa (NBRC13275). Described as above. The following applies: strain NBRC13275; Mueller Hinton Agar, 37 degrees C. overnight. On the procedure:
as §1, §8, §3, §4, §5, §6, §7

Experiment [11] concerns Propionibacterium acnes (ATCC6919). The experiment can be described thus: Growth inhibition activity (MIC, agar) against anaerobic bacteria. The note with it: strain ATCC6919; Trypticase Soy Broth agar, 37 degrees C. for 3 days. The procedure: as §1
(§9) In the test for growth inhibition activity, the following strains were used: • Acne bacteria: Propionibacterium acnes (JCM6473) and (ATCC6919) • Abscess bacteria: Bacteroides fragilis (GAI5560) • Cavity-causing bacteria: Streptococcus mutans (JCM5175), Actinomyces naeslundii (JCM8350) and Actinomyces viscosus (JCM8352) • Periodontal pathogen: Fusobacterium nucleatum (JCM6328), Porphyromonas gingivalis (JCM8525), Prevotella nigrescens (JCM6322)
(§10) The test strains were cultured in a GAM medium (Nissui Pharmaceutical Co., LTD), a Schaedler Broth (BBL) or a Trypticase Soy Broth (BBL) liquid medium, and then the grown bacteria were diluted in saline to prepare turbidity 0.5 McFarland of the bacteria fluids for inoculation. The bacteria were cultured at 37 degrees C. for 3 days under an anaerobic condition by using AnaeroPack® from MGC.
(§11) Furthermore, in order to examine the growth inhibition activities against the bacteria by the above cooling agent, the concentration of the cooling agents: (3S)-CA20, (3R)-CA20, CA1, CA5, CA15, CA55 or CA MGH was diluted with ethanol to the required level of concentrations for the determining the Minimum Inhibitory Concentration to produce the sample liquids.
(§12) Next, 100 μL of each sample liquid was added to 10 mL of a Trypticase Soy Broth agar medium solution in a soluble state, and each agar medium solution was poured into a petri dish and solidified, to prepare the test plates. Subsequently, 5 μL of above the bacteria fluids for inoculation were stamped on the test plates, and then the test plates were cultured at 37 degrees C. for 3 days.
(§13) The minimum concentration of the cooling agent in which the growth of bacteria could not be confirmed was considered as the MIC (Minimum Inhibitory Concentration).
as §13

For experiment [12], the system named is Actinomyces naeslundii (JCM8350). The description is as above. The following applies: strain JCM8350; Trypticase Soy Broth agar, 37 degrees C. for 3 days. On the procedure: as §1, §9, §10, §11, §12, §13, §13
Experiment [13] deals with Porphyromonas gingivalis (JCM8525). The description is as above. The following applies: strain JCM8525; Trypticase Soy Broth agar, 37 degrees C. for 3 days. The procedure:
as §1, §9, §10, §11, §12, §13, §13

For experiment [14], the system named is Streptococcus mutans (JCM5175). The experiment is described as above. The following applies: strain JCM5175; Trypticase Soy Broth agar, 37 degrees C. for 3 days. The procedure:
as §1, §9, §10, §11, §12, §13, §13

Experiment [15] relates to Actinomyces viscosus (JCM8352). Described as above. The note with it: strain JCM8352; Trypticase Soy Broth agar, 37 degrees C. for 3 days. On the procedure: as §1, §9, §10, §11, §12, §13, §13
The subject of experiment [16] is Prevotella nigrescens (JCM6322). The experiment is described as above. The following applies: strain JCM6322; Trypticase Soy Broth agar, 37 degrees C. for 3 days. The procedure:
as §1, §9, §10, §11, §12, §13, §13

Experiment [17] relates to Bacteroides fragilis (GAI5560). The description is as above. The following applies: strain GAI5560; Trypticase Soy Broth agar, 37 degrees C. for 3 days. The procedure:
as §1, §9, §10, §11, §12, §13, §13

Experiment [18] deals with Propionibacterium acnes (JCM6473). The experiment is described as above. The note with it: strain JCM6473; Trypticase Soy Broth agar, 37 degrees C. for 3 days. On the procedure: as §1, §9, §10, §11, §12, §13, §13

`CC(O)CC(=O)OC1CC(C)CCC1C(C)C` [(3R)-CA20, menthyl 3-hydroxybutanoate]: the “MIC (Minimum Inhibitory Concentration)” value was 100 ppm in experiment [1]; 200 ppm in experiment [2]; 200 ppm in [3]; 200 ppm in [4]; 100 ppm in experiment [5]; over 1600 ppm in experiment [6]. In addition, the “MIC (Minimum Inhibitory Concentration)” value in [7] is listed as 200 ppm; in [8], over 1600 ppm; in experiment [9], 200 ppm; in experiment [10] it was over 1600 ppm; in [11], 400 ppm; in [12] it was 200 ppm. Moreover, the “MIC (Minimum Inhibitory Concentration)” value came out at 100 ppm in experiment [13]; 200 ppm in experiment [14]; 100 ppm in [15]; 200 ppm in experiment [16]; 100 ppm in experiment [17]; 200 ppm in experiment [18].
As for “N-alkyl-p-menthane-3-carboxamide [WS-3, reference compound]”, the “MIC (Minimum Inhibitory Concentration)” value in [1], in experiment [2], in experiment [3], in experiment [4], in [5] and in experiment [6] was over 1600 ppm in each case. Further, the “MIC (Minimum Inhibitory Concentration)” value in [7], in [8], in [9], in experiment [10], in [11] and in [12] was over 1600 ppm each time. In addition, the “MIC (Minimum Inhibitory Concentration)” value was 200 ppm in [13]; over 1600 ppm in experiment [14]; over 1600 ppm in [15]; over 1600 ppm in [16]; over 1600 ppm in experiment [17]; over 1600 ppm in experiment [18].
